From patent publication US9801940B2, “Oral care compositions” (Colgate-Palmolive Company, priority 2010, dated 2017)

test system: representative oral bacteria S. mutans, F. nucleatum, V. parvula, A. naslundii, P. gingivitis; assay: Bactericidal properties in in vitro tests; format: cell-based
Description: As referred to herein, the expressions “extract of magnolia” or “magnolia extract” denote an extract from dried cortex, or bark, of a plant from the Magnoliaceae family, such as Magnolia officinalis, (hereinafter “magnolia”), or a synthetic or semi-synthetic equivalent of such an extract or an active component thereof. […] In other embodiments, the oral composition comprises an extract of magnolia. […] It should be noted that any plant from the Magnoliaceae family is suitable for extracting the active ingredients used in the present embodiment.

Row | Compound | bactericidal properties against representative oral bacteria
1 | C=CCc1ccc(O)c(-c2ccc(O)c(CC=C)c2)c1 [honokiol] | demonstrated bactericidal properties
2 | C=CCc1ccc(O)c(-c2cc(CC=C)ccc2O)c1 [magnolol] | demonstrated bactericidal properties
3 | CCCc1ccc(O)c(-c2ccc(O)c(CCC)c2)c1 [tetrahydrohonokiol, 3′,5-dipropylbiphenyl-2,4′-diol] | demonstrated bactericidal properties
4 | CCCc1ccc(O)c(-c2cc(CCC)ccc2O)c1 [tetrahydromagnolol, 5,5′-dipropylbiphenyl-2,2′-diol] | demonstrated bactericidal properties
